{"source": "patent US20060234329A1", "about": "“Method for determining the antiradical defense potential and use thereof, in particular in veterinary and human preventive therapeutics” (priority 2003, published 2006)"}
{"system": "control whole blood", "assay": "prior KRL test without hydrolysis: lysis by free radicals", "type": "cell-based", "details": "not given", "protocol": "This known method has been standardised using whole human or animal blood, which is diluted, instead of the above-stated erythrocytes isolated from whole blood. The standardised method has been successfully marketed under the name “KRL Test” (kit radicaux libres [=free radical kit]) in particular for determining (i) the antiradical defence capacity of a human, animal or plant cellular tissue, or (ii) the possible antiradical properties of a physical, chemical or biological agent. More specifically, the KRL test is performed by 1) bringing (a) previously diluted control whole blood into contact in an appropriate buffer medium with (b) an agent to be tested (in particular a cellular material, a substance or a composition) and (c) a free radical generator, 2) inducing release of the free radicals, 3) monitoring the lysis kinetics of the erythrocytes from the control whole blood by measuring the absorbance of the reaction medium, then 4) comparing said latter value with that of control whole blood determined under the same conditions without the agent to be tested.\n(§1) Sulfated ferulic acid (I) consequently comprises a double antiradical reserve which is usable by hydrolysis. The antiradical activity of these products was determined according to the prior KRL test without hydrolysis, on the one hand, and according to the invention after hydrolysis, on the other hand. The results obtained are set out in Table I which illustrates the value of hydrolysis according to the invention. [drawing 5]"}
{"compound": "O=C(O)/C=C/c1ccc(O)c(O)c1", "note": "[trans-caffeic acid (III), trans-caffeic acid]", "Antiradical activity relative to ferulic acid, without hydrolysis": 2.06}
{"compound": "COc1cc(/C=C/C(=O)O)ccc1OS(=O)(=O)O", "note": "[sulfated ferulic acid (I), sulfated ferulic acid]", "Antiradical activity relative to ferulic acid, without hydrolysis": 0.01}
{"compound": "COc1cc(/C=C/C(=O)O)ccc1O", "note": "[trans-ferulic acid (II), trans-ferulic acid]", "Antiradical activity relative to ferulic acid, without hydrolysis": 1.00}
{"system": "whole blood, erythrocytes or blood plasma", "assay": "method of the invention: hydrolysis, then lysis by free radicals", "type": "cell-based", "details": "with hydrolysis according to the invention", "protocol": "as §1\nThe method of the invention has been standardised for use with whole blood, erythrocytes or blood plasma as the second cellular material. […] The T½ value and the other parameters stated above are then determined. […]\nThe sample to be tested (50 μl), which contains or is associated with whole blood, with erythrocytes or, respectively, with plasma and if necessary is diluted, is introduced into the dilution solution (220 μl) placed in the wells of a microplate. Hydrolysis is performed, the free radical generator is introduced, release of the free radicals is initiated and the T½ value and said other parameters are determined according to the methods stated above.\nIn practice, it is recommended to use the following quantities of enzymes, where U denotes the international unit of the enzyme in question: • β-glucosidase at a final concentration of 11.11 U/ml (3 U/well), • sulfatase at a final concentration of 3 U/ml (0.8 U/well), and/or • β-glucuronidase at a final concentration of 2222.22 U/ml (600 U/well). Other advantages and characteristics of the invention will be better understood on reading the Examples and tests stated hereafter. […]"}
{"compound": "O=C(O)/C=C/c1ccc(O)c(O)c1", "note": "[trans-caffeic acid (III), trans-caffeic acid]", "Antiradical activity relative to ferulic acid, with hydrolysis": 2.06}
{"compound": "COc1cc(/C=C/C(=O)O)ccc1OS(=O)(=O)O", "note": "[sulfated ferulic acid (I), sulfated ferulic acid]", "Antiradical activity relative to ferulic acid, with hydrolysis": 2.06}
{"compound": "COc1cc(/C=C/C(=O)O)ccc1O", "note": "[trans-ferulic acid (II), trans-ferulic acid]", "Antiradical activity relative to ferulic acid, with hydrolysis": 2.05}
